Experimental data taken from PMC4272579 (The Journal of steroid biochemistry and molecular biology, 2014).
Entries after “also recorded” stand apart in the source; their conditions may differ.

Key:
[1] = target: purified and modified human CYP17A1 (Homo sapiens, UniProt P05093); assay: Spectral assay for ligand binding; conditions: for type of difference spectrum induced: UV-visible difference spectroscopy; for Kd: read-out: Ks (spectral binding constant), 200 nM CYP17A1, 0.1 M potassium phosphate pH 7.4, 20% glycerol, room temperature, means ± SE of 2-4 experiments
[2] = target: T1, native human CYP17A1 enzyme in yeast microsomes (Homo sapiens, UniProt P05093); assay: CYP17A1 hydroxylase activity assay; type: biochemical; conditions: for mode of inhibition: Lineweaver-Burk and Cornish-Bowden plots, progesterone hydroxylation
T1 sequence (P05093 1-508): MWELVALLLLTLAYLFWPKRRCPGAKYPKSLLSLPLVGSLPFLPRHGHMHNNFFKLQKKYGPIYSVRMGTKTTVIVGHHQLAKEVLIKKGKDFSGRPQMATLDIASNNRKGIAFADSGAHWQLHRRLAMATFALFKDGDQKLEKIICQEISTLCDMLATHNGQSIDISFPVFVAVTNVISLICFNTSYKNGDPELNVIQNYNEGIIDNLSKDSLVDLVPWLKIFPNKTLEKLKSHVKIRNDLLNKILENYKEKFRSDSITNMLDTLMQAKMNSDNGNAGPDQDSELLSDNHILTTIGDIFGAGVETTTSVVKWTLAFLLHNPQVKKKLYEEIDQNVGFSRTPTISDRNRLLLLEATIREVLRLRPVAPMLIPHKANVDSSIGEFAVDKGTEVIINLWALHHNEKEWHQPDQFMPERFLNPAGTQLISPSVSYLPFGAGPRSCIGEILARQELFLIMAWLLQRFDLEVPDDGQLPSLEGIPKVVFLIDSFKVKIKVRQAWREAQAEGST

[3] = test system: CYP17A1; conditions: CYP17A1 inhibitor; statement in introduction, no reference given; cited from earlier work

| mode of inhibition ([2]; listed as Abi) | SMILES | type of difference spectrum induced [1] | Kd [1] | Ki [2] | potency relative to ketoconazole [3] | mode of inhibition [2] | Type of inhibition ([2]; progesterone as substrate) |
| --- | --- | --- | --- | --- | --- | --- | --- |
| mixed-type inhibitors | C[C@]12CC[C@H](O)CC1=CC[C@@H]1[C@@H]2CC[C@]2(C)C(c3cccnc3)=CC[C@@H]12 [Abiraterone, abiraterone, reference compound] | type II difference spectrum | 0.0026 ± 0.0032 µM | 0.027 µM | about 20 times | – | – |
| – | C[C@]12CC[C@@H](O)C[C@@H]1CC[C@@H]1[C@@H]2CC[C@]2(C)C(c3cccnc3)=CC[C@@H]12 [Compound 5, 17-(3-pyridyl)-5α-androsta-16-ene-3α-ol] | type II difference spectrum | – | 0.014 µM | – | mixed-type inhibitors; also recorded: mixed competitive-noncompetitive inhibition | – |
| – | C[C@]12CCC(=O)C[C@@H]1CC[C@@H]1[C@@H]2CC[C@]2(C)C(c3cccnc3)=CC[C@@H]12 [Compound 6, 17-(3-pyridyl)-5α-androsta-16-ene-3-one] | type II difference spectrum | – | 0.007 µM | – | mixed-type inhibitors; also recorded: mixed competitive-noncompetitive inhibition | – |
| – | C[C@]12CCC(=O)C=C1CC[C@@H]1[C@@H]2CC[C@]2(C)C(c3cccnc3)=CC[C@@H]12 [Compound 11, 17-(3-pyridyl)androsta-4,16-dien-3-one] | type II difference spectrum | – | 0.022 µM | – | mixed-type inhibitors; also recorded: mixed competitive-noncompetitive inhibition | – |
| – | C[C@]12CC[C@@H](O)C=C1CC[C@@H]1[C@@H]2CC[C@]2(C)C(c3cccnc3)=CC[C@@H]12 [Compound 13, 17-(3-pyridyl)androsta-4,16-dien-3α-ol] | type II difference spectrum | 1.66 ± 0.286 µM | 0.08 µM | – | primarily non-competitive inhibition; also recorded: non-competitive inhibitor; also recorded: primarily noncompetitive; also recorded: largely noncompetitive mode of inhibition | N |
